Like-named read-outs stand apart in the source and are kept apart here.
Legend:
[1] = test system: lesions of the mucous membrane of the stomach; experiment: Ethanol test (mucosa-protective activity); type: in vivo; settings: Rattus norvegicus; male rats, oral 30 min before absolute ethanol; dosage reducing number of lesions by 50%; read-out: Ethanol Test ID 50
Description: The experimental procedure described hereinafter was used to determine the mucosa-protective property:
The oral administration of absolute ethanol to male rats in a dosage of 1 ml per rat leads within 1 hour to bloody lesions of the mucous membrane of the stomach. Various dosages of the substances to be tested (suspended in 0.125% carboxymethycellulose) or of the vehicle alone (control) are administered to the rats orally (1 ml per rat) 30 minutes prior to the treatment with ethanol. One hour after the administration of the ethanol the animals are killed, their stomachs are investigated for the presence of lesions and the number and the total dimension of such lesions are determined. The ID50 is that dosage of a test substance which reduces by 50% the number of lesions in comparison to the control group. […]

[2] = test system: gastric acid secretion; experiment: Gastric acid secretion-inhibiting activity (pylorus ligation, Shay et al.); type: in vivo; settings: Rattus norvegicus; male pylorus-ligated rats, intraduodenal, 5 h; 50% decrease of the secretion; read-out: Gastric acid secretion-inhibition, ID 50
Description: The test procedure described hereinafter was used to determine the gastric acid secretion-inhibiting activity:
The pylorus of male rats is ligated under slight ether narcosis in accordance with Shay et al., Gastroenterology 5. 43 (1945). The substances to be tested, suspended in 0.5% carboxymethylcellulose, are administered intraduodenally. Control animals are treated only with the vehicle. Five hours after the ligation the animals are killed, the volume and acidity of their gastric juice are determined and the values obtained are compared with those of control animals. The ID50 is that dosage of a test substance which brings about a 50% decrease of the secretion in comparison to the control animals. In the following Table there are given for a series of representative compounds of formula I and for two compounds of formula II the results of the testing with respect to their mucosa-protective activity ("ethanol test") and to their gastric acid secretion-inhibiting activity. Moreover, this Table contains data concerning the acute toxicity (LD50 in the case of single oral administration to mice).

[3] = Acute toxicity, single oral administration; settings: mouse, in vivo, read-out: Toxicity LD 50
[4] = single oral administration to mice

| Structure (SMILES) | ED50 [1] [mg/kg] | ED50 [2] [mg/kg] | LD50 [3, 4] [mg/kg] | LD50 ([3]; po) [mg/kg] |
| --- | --- | --- | --- | --- |
| O=C(O)C#CC(=O)c1ccc2c(c1)OCO2 [A, 3-[3,4-(Methylenedioxy)benzoyl]propiolic acid] | 1.2 | 42 | 625 to 1250 | – |
| COC(=O)C#CC(O)c1ccc2c(c1)OCO2 (stereo not shown) [Aa, methyl 4-hydroxy-4-[3,4-(methylenedioxy)phenyl]-2-butynoate] | 1.4 | – | 312 to 625 | – |
| COc1cc(C(=O)C#CCO)cc(OC)c1OC [B, 4-hydroxy-1-(3,4,5-trimethoxyphenyl)-2-butyn-1-one] | 1.9 | 18 | 156 to 312 | – |
| COCCOCCOC(=O)C#CC(O)c1cc(OC)c(OC)c(OC)c1 (stereo not shown) [Bb, 2-(2-methoxyethoxy)ethyl 4-hydroxy-4-(3,4,5-trimethoxyphenyl)-2-butynoate] | 4 | – | 625 to 1250 | – |
| COc1ccc(C(=O)C#CC(=O)O)cc1 [C, 3-(4-methoxybenzoyl)propiolic acid] | 1.4 | – | 625 to 1250 | – |
| COC(=O)C#CC(=O)c1ccc(OC)c(OC)c1OC [D, methyl 3-(2,3,4-trimethoxybenzoyl)propiolate] | 2.1 | – | 625 to 1250 | – |
| COC(=O)C#CC(=O)c1ccc(O)cc1 [E, methyl 3-(4-hydroxybenzoyl)propiolate] | 1.2 | – | 312 to 625 | – |
| COCCOCCOC(=O)C#CC(=O)c1cc(OC)c(OC)c(OC)c1 [F, 2-(2-methoxyethoxy)ethyl 3-(3,4,5-trimethoxybenzoyl)propiolate] | 2.9 | – | > 5000 | – |
| COCCOCCOC(=O)C#CC(=O)c1ccc(OC)cc1 [G, 2-(2-methoxyethoxy)ethyl 3-(4-methoxybenzoyl)propiolate] | 2.1 | – | 1000 to 2000 | – |
| COC(=O)C#CC(=O)c1cc(OC)ccc1OC [H, methyl 3-(2,5-dimethoxybenzoyl)propiolate] | 2.2 | – | > 5000 | – |
| COc1ccc(OC)c(C(=O)C#CC(=O)O)c1 [I, 3-(2,5-dimethoxybenzoyl)propiolic acid] | 1.9 | – | 625 to 1250 | – |
| COCCOCCOC(=O)C#CC(=O)c1ccc2c(c1)OCO2 [J, 2-(2-methoxyethoxy)ethyl 3-[3,4-(methylenedioxy)-benzoyl]propiolate] | 2.3 | > 100 | 1250 to 2500 | – |
| COc1ccc(C(=O)C#CC(=O)O)c(OC)c1OC [K, 3-(2,3,4-trimethoxybenzoyl)-propiolic acid] | 3.4 | – | 500 to 1000 | – |
| COc1cc(C(=O)C#CC(=O)O)cc(OC)c1OC [L, 3-(3,4,5-trimethoxybenzoyl)-propiolic acid] | 4.1 | 56 | 1000 to 2000 | – |
| COC(=O)C#CC(=O)c1ccc(F)cc1 [M, methyl 3-(4-fluorobenzoyl)propiolate] | 4.2 | – | 1250 to 2500 | – |
| COC(=O)C#CC(=O)c1cc(OC)c(OC)c(OC)c1 [N, methyl 3-(3,4,5-trimethoxybenzoyl)propiolate] | 4.2 | > 100 | > 5000 | – |
| COc1cc(C(=O)C#CC(=O)N(C)C)cc(OC)c1OC [O, N,N-dimethyl-3-(3,4,5-trimethoxybenzoyl)propiolamide] | 2.8 | 28 | 312 to 625 | – |
| O=C(C#CCO)c1ccc(F)cc1 [P, 1-(4-fluorophenyl)-4-hydroxy-2-butyn-1-one] | 0.9 | – | 80 to 156 | – |
| Cc1ccc(C(=O)C#CCO)cc1 [Q, 4-hydroxy-1-(4-methylphenyl)-2-butyn-1-one] | 1.5 | – | 80 to 156 | – |
| CCOC(C)OCC#CC(=O)c1ccc(F)cc1 (stereo not shown) [R, 4-(1-ethoxyethoxy)-1-(4-fluorophenyl)-2-butyn-1-one] | 1.4 | – | 80 to 156 | – |
| O=C(C#CCO)c1ccc(Cl)cc1 [S, 1-(4-chlorophenyl)-4-hydroxy-2-butyn-1-one] | 1.2 | – | 80 to 156 | – |
| COc1ccc(C(=O)C#CCO)cc1 [T, 4-hydroxy-1-(4-methoxyphenyl)-2-butyn-1-one] | 1.2 | – | 40 to 80 | – |
| O=C(C#CCO)c1ccc2c(c1)OCO2 [U] | 1.1 | – | – | 80 to 156 |
| COc1cc(C(=O)C#CC(C)O)cc(OC)c1OC (stereo not shown) [V, 4-hydroxy-1-(3,4,5-trimethoxyphenyl)-2-pentyn-1-one] | 1.2 | 3.1 | 156 to 312 | – |
| CCOC(C)OCC#CC(=O)c1ccc(OC)c(OC)c1OC (stereo not shown) [W, 4-(1-ethoxyethoxy)-1-(2,3,4-trimethoxyphenyl)-2-butyn-1-one] | 0.8 | 9 | 312 to 625 | – |
| COc1ccc(C(=O)C#CCO)c(OC)c1OC [X, 4-hydroxy-1-(2,3,4-trimethoxyphenyl)-2-butyn-1-one] | 0.8 | 4 | 156 to 312 | – |
| CSc1ccc(C(=O)C#CCO)cc1 [Y, 4 hydroxy-1-[4-(methylthio)phenyl]-2-butyn-1-one] | 1 | 2.7 | 156 to 312 | – |

Reference: US4929741A, “Propiolophenone derivatives” (Hoffman-La Roche Inc., priority 1987, dated 1990)
